Data from PubChem BioAssay AID1549 (Sanford-Burnham Center for Chemical Genomics, 2009).
Active and inactive are the calls of the source. No rule for the calls is given here.

Molecular target: Influenza A virus M2 proton channel (A/TW/4845/1999 H1N1)
Test: NMR binding screen, influenza A virus M2 proton channel, Kd (AID 1549)
Conditions: M2 protein

SMILES | Kd
COc1c2ccoc2cc2oc(C)cc(=O)c12 | > 4 mM (inactive)
NC(=O)CSc1ccc2nnc(-c3cccs3)n2n1 | > 4 mM (inactive)
CC(=O)NC12CC3CC(C)(C1)CC(NC(C)=O)(C3)C2 | > 4 mM (inactive)
CC(NC(=O)C1CCCCC1)C(=O)NC1=NCCS1 (stereo not given) | > 4 mM (inactive)
O=C(O)c1ccc(NC(=O)c2cccs2)cc1 | > 4 mM (inactive)
Nc1nc2ncc(CNc3ccc(C(=O)N[C@@H](CCC(=O)O)C(=O)O)cc3)nc2c(=O)[nH]1 | > 4 mM (inactive)
Cc1nnc(SCC(=O)NCc2ccccc2)[nH]c1=O | > 4 mM (inactive)
Cc1cc(C(=O)N2CCC3(CC2)OCCO3)cs1 | > 4 mM (inactive)
CC(=O)c1cc(C)ccc1OC(=O)c1cccnc1 | > 4 mM (inactive)
O=C(Nc1ccc2c(c1)OCO2)c1c(F)cccc1F | > 4 mM (inactive)
NC(=O)c1ccsc1NC(=O)c1ccco1 | > 4 mM (inactive)
CN=C(C)c1c(O)n(C)c(=S)n(C)c1=O | > 4 mM (inactive)
Cn1nc(-c2ccccc2)cc1N | > 4 mM (inactive)
O=C(NC1=NCCS1)c1cccc(F)c1 | > 4 mM (inactive)
O=C1CCN(c2ccccc2)N1 | > 4 mM (inactive)
O=C(CC1NCCNC1=O)Nc1ccccc1 (stereo not given) | > 4 mM (inactive)
CC(N)C(=O)c1ccco1 (stereo not given) | > 4 mM (inactive)
C=C[C@@]1(C)CC(=O)[C@@]2(O)[C@](C)(O1)[C@@H](OC(C)=O)[C@@H](O)C1C(C)(C)CC[C@H](O)[C@@]12C (stereo not given in full) | > 4 mM (inactive)
COc1cc(C/C=C/c2ccccc2)c(OC)cc1O | > 4 mM (inactive)
Nc1nc(-c2ccc(Cl)cc2)nn1C(=O)c1cccnc1 | > 4 mM (inactive)
O=C(O)CCN1CCc2ccccc2C1c1ccncc1 (stereo not given) | > 4 mM (inactive)
Nc1nc(-c2ccc(F)c(F)c2)cs1 | > 4 mM (inactive)
c1cncc(Nc2nc(-c3cccnc3)cs2)c1 | > 4 mM (inactive)
Cc1ccc2cc(CO)ccc2n1 | > 4 mM (inactive)

SMILES | Kd
O=C(CN1C(=O)c2cccc3cccc(c23)C1=O)NO | > 4 mM (inactive)
CNC(=O)CC1Sc2ccccc2NC1=O (stereo not given) | > 4 mM (inactive)
CC1CN=C(Nc2ccccc2)S1 (stereo not given) | > 4 mM (inactive)
Cn1ncc(C(=O)O)c1-c1ccccc1 | > 4 mM (inactive)
COc1ccc(S(=O)(=O)N2CCOCC2)cc1C(C)C | > 4 mM (inactive)
COc1ccc2c(c1)OCC(Cc1ccc(OC)c(O)c1)C2=O (stereo not given) | > 4 mM (inactive)
CC(=O)N1CC2(C)CN(C(C)=O)CC(C)(C1)C2 | > 4 mM (inactive)
O=C(O)CCc1ccc2c(c1)OCO2 | > 4 mM (inactive)
CC1=C(/C=C/C(C)=C/C=C/C(C)=C/C=C/C=C(C)/C=C/C=C(C)/C=C/C(=O)[C@]2(C)C[C@@H](O)CC2(C)C)C(C)(C)C[C@H](O)C1 | > 4 mM (inactive)
O=c1[nH]cnc2c1nnn2Cc1ccccc1 | > 4 mM (inactive)
CC(C)(C#N)O[C@@H]1O[C@H](CO)[C@@H](O)[C@H](O)[C@H]1O | > 4 mM (inactive)
Cn1c(SCCC(=O)O)nnc1-c1cccnc1 | > 4 mM (inactive)
OCc1ccc(-n2ccnc2)cc1 | > 4 mM (inactive)
O=c1c2ccccc2oc2ccccc12 | > 4 mM (inactive)
Cc1occc1C(=O)Nc1sccc1C(N)=O | > 4 mM (inactive)
Oc1ccccc1C(=S)N1CCCCCC1 | > 4 mM (inactive)
O=c1[nH]cc(N2CCCCC2)c(=O)[nH]1 | > 4 mM (inactive)
O=C(c1cc(-c2ccccc2)on1)N1CCCC1 | > 4 mM (inactive)
CC(=O)c1ccc(N2C(=O)C(C(C)C)NC2=S)cc1 (stereo not given) | > 4 mM (inactive)
OC12CC3CC(CC(C3)C1)C2 | > 4 mM (inactive)
Cc1nn(-c2ccccc2)nc1C(=O)O | > 4 mM (inactive)
CNC(=S)N1CCN(C(=O)c2ccco2)CC1 | > 4 mM (inactive)
COc1cc2c(cc1OC)-c1nnnn1C(C)(C)C2 | > 4 mM (inactive)
NC(c1ccccc1)c1ccccn1 (stereo not given) | > 4 mM (inactive)

SMILES | Kd
CC(C)=CCc1c2c(c(O)c3c(=O)c(O)c(-c4ccccc4)oc13)C=CC(C)(C)O2 | > 4 mM (inactive)
CC(=O)Oc1cccc2ccc(=O)[nH]c12 | > 4 mM (inactive)
O=C(NC1CCS(=O)(=O)C1)c1ccccc1 (stereo not given) | > 4 mM (inactive)
CN1CCC(N2CCOCC2)CC1 | > 4 mM (inactive)
c1ccc2c(c1)nnn2C1CCNCC1 | > 4 mM (inactive)
Cn1c(=O)[nH]c(=O)c2nsnc21 | > 4 mM (inactive)
c1cc2n(c1)CCNC2c1ccncc1 (stereo not given) | > 4 mM (inactive)
CS(=O)(=O)N1CCN(C(=O)Cc2cccs2)CC1 | > 4 mM (inactive)
CC(=O)c1ccc(NS(=O)(=O)c2cccc(C)c2)cc1 | > 4 mM (inactive)
Cc1oc(-c2ccccc2)nc1CCO | > 4 mM (inactive)
Cc1nc2ccc(C(=O)O)cc2[nH]1 | > 4 mM (inactive)
CC(CCC(=O)O)[C@H]1CCC2C3C(C[C@H](O)[C@@]21C)[C@@]1(C)CC[C@@H](O)C[C@H]1C[C@H]3O (stereo not given in full) | > 4 mM (inactive)
COc1ccccc1-c1c(C)nn2c(C)c(C(C)=O)cnc12 | > 4 mM (inactive)
Cc1cc2c(N)cccc2nn1 | > 4 mM (inactive)
c1ccc(-c2nnc3sc(-c4ccncc4)nn23)cc1 | > 4 mM (inactive)
CCC(=O)NC(=S)Nc1ccc(C(N)=O)cc1 | > 4 mM (inactive)
COC(=O)C1Cc2ccccc2N1 (stereo not given) | > 4 mM (inactive)
O=C(O)c1cnc2sc3ccccc3n2c1=O | > 4 mM (inactive)
O=C(Nc1ccc(N2CCOCC2)cc1)C1CC1 | > 4 mM (inactive)
NC1=C(c2ccccc2)C(=O)c2ccccc21 | > 4 mM (inactive)
Fc1cccc(Cl)c1CN1CCCNCC1 | > 4 mM (inactive)
C=CCCCCCCCCCCCC(O)CC(O)COC(C)=O (stereo not given) (tested in a mixture with another compound) | > 4 mM (inactive)
COCCn1c(SC)nc2c1c(=O)[nH]c(=O)n2C | > 4 mM (inactive)
O=C1C=CC(=O)c2c(O)cccc21 | > 4 mM (inactive)

SMILES | Kd
COc1ccc(C(N)=O)cc1NC(C)=O | > 4 mM (inactive)
COc1ccc(-c2oc3cc(O[C@H]4O[C@H](CO)[C@@H](O)[C@H](O)[C@H]4O)c(OC)c(O)c3c(=O)c2OC)cc1O | > 4 mM (inactive)
Cn1ccnc1SCc1cc(=O)[nH]c2ccccc12 | > 4 mM (inactive)
CC1(c2ccncc2)NC(=O)NC1=O (stereo not given) | > 4 mM (inactive)
O=C(Nc1cccnc1)c1cccs1 | > 4 mM (inactive)
CC(=O)Nc1ccccc1OCC(N)=O | > 4 mM (inactive)
O=C1CSC(=O)N1CN1CCCC1 | > 4 mM (inactive)
CC(C)Oc1ccc(C2CC(=O)NNC2=O)cc1 (stereo not given) | > 4 mM (inactive)
CC(=O)c1nnc2cc(C)nn2c1C | > 4 mM (inactive)
CC(=O)N1CCc2cc(NC(=O)c3ccc(C)cc3)ccc21 | > 4 mM (inactive)
Oc1ccccc1-c1nnco1 | > 4 mM (inactive)
NCCc1cnc[nH]1 | > 4 mM (inactive)
c1ccc(-c2noc(-c3ccc4c(c3)OCO4)n2)nc1 | > 4 mM (inactive)
COC1(C)CCC2OC2(C)CCC2C1CC2(C)C (stereo not given) | > 4 mM (inactive)
COC(=O)C1=C(C)N(c2cccc(C(C)=O)c2)C(=O)C1 | > 4 mM (inactive)
Cc1noc(C)c1C(=O)N1CCN(c2ncccn2)CC1 | > 4 mM (inactive)
CN1CC(=O)N=C1N | > 4 mM (inactive)
COc1cc(N)ncn1 | > 4 mM (inactive)
CC1(C)CC2C1CC[C@]1(C)CCC3C(C(=O)O)CC(=O)O[C@@]32C1 (stereo not given in full) | > 4 mM (inactive)
CC(=O)Nc1ccc(-c2cn3ccsc3n2)cc1 | > 4 mM (inactive)
N#Cc1c[nH]n2c(=O)cc(Cc3ccccc3)nc12 | > 4 mM (inactive)
NC(=O)c1ccccc1NC(=O)C1CC1 | > 4 mM (inactive)
O=c1cc(-c2ccc(O)cc2)oc2cc(O)cc(O)c12 | > 4 mM (inactive)
O=C(O)/C=C/C=C/c1ccccc1 | > 4 mM (inactive)

SMILES | Kd
COc1ccccc1NC(=O)CCC(=O)O | > 4 mM (inactive)
COc1cccc2c(=O)n(CC(N)=O)ccc12 | > 4 mM (inactive)
COc1ccc2c(c1)OC[C@@H](Cc1ccc(OC)c(OC)c1)[C@H]2O | > 4 mM (inactive)
Cc1ccc(SCc2nc(-c3ccncc3)no2)cc1 | > 4 mM (inactive)
CC(C)=CCC/C(C)=C/CC/C(C)=C/CC/C(C)=C/CC/C(C)=C/CC/C(C)=C/CC/C(C)=C/CC/C(C)=C/CC/C(C)=C/CO | > 4 mM (inactive)
O=c1c(O)cc([C@H]2Oc3cc(O)cc(O)c3C[C@H]2O)cc2c([C@H]3Oc4cc(O)cc(O)c4C[C@H]3O)cc(O)c(O)c12 | > 4 mM (inactive)
Nc1ccc2c(c1)S(=O)(=O)C=C2 | > 4 mM (inactive)
O=C1N/C(=N\c2ccccn2)SC1Cc1ccccc1 (stereo not given) | > 4 mM (inactive)
CN(C)c1ccc(N2C(=O)CCC2=O)cc1 | > 4 mM (inactive)
Cn1nnc2cc(CN)ccc21 | > 4 mM (inactive)
Cn1c(SCc2ccon2)nc2ccccc2c1=O | > 4 mM (inactive)
OCc1cccc2c1OCO2 | > 4 mM (inactive)
CC1=NN(c2ccc(C)cc2)C(=O)C1 | > 4 mM (inactive)
Cc1ccc(/C=C/C(=O)O)cc1S(=O)(=O)NCCO | > 4 mM (inactive)
O=C1CSC(=S)N1N1C(=O)C2C3C=CC(C3)C2C1=O (stereo not given) | > 4 mM (inactive)
c1nnc2c3c4c(sc3ncn12)CCCC4 | > 4 mM (inactive)
CCN1CCC2(CC1)CC1CC3C=CC1(CN2C(C)=O)O3 (stereo not given) | > 4 mM (inactive)
Cc1nnc(SCc2cccs2)[nH]c1=O | > 4 mM (inactive)
CCCC(=O)N1CCSCC1 | > 4 mM (inactive)
CCOC(=O)c1sc(SC)c2c1CCCC2O (stereo not given) | > 4 mM (inactive)
COC(=O)c1c[nH]c2ccccc12 | > 4 mM (inactive)
O=c1[nH]cc(N=Cc2ccc(F)cc2)c(=O)[nH]1 | > 4 mM (inactive)
O=C1CNc2cc(C(=O)O)ccc2N1 | > 4 mM (inactive)
Cn1c(SCC(N)=O)nnc1-c1cccnc1 | > 4 mM (inactive)
